{"source": "ChEMBL document CHEMBL4017490", "about": "“Design, Synthesis, and Pharmacological Evaluation of Novel Multisubstituted Pyridin-3-amine Derivatives as Multitargeted Protein Kinase Inhibitors for the Treatment of Non-Small Cell Lung Cancer” (J Med Chem, 2017)", "key": {"[1]": {"target": "Discoidin domain-containing receptor 2 (Homo sapiens, UniProt Q16832)", "sequence (Q16832 whole entry, the tested form may be a part)": "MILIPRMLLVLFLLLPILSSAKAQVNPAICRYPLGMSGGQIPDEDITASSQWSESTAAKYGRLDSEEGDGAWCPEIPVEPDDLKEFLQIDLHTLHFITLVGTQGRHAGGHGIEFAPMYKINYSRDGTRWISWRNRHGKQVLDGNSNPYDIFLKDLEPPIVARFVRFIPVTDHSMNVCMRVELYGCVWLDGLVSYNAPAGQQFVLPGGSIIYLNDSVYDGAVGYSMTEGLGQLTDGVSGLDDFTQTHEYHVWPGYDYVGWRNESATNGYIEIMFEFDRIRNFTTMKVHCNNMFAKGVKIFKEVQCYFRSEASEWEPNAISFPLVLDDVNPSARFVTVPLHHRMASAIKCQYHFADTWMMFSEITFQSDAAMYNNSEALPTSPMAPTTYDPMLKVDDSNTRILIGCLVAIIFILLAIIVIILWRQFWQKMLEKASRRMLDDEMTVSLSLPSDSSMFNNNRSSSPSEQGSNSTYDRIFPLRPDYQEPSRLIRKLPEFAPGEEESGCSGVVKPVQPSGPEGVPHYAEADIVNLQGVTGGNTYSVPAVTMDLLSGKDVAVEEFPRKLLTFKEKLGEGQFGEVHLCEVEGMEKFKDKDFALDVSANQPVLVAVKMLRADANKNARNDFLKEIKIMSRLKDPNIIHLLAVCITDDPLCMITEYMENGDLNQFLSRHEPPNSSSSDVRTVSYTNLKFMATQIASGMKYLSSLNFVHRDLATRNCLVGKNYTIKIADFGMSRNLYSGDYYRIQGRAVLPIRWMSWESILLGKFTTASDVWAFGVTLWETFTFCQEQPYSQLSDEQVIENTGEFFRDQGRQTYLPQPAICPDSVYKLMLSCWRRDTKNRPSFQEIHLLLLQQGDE", "assay": "Inhibition of recombinant DDR2 (unknown origin) using poly (Glu,Tyr) 4:1 as substrate after 60 mins by ELISA"}, "[2]": {"assay": "Apparent clearance in Sprague-Dawley rat at 10 mg/kg, iv by LC-MS/MS method", "type": "ADME, organism-based", "details": "in vivo, read-out: CL(app) (converted)"}, "[3]": {"assay": "Cmax in CD-1 mouse at 5 mg/kg, iv by LC-MS/MS method", "type": "ADME, organism-based", "design": "dose 5 mg/kg, route intravenous", "details": "in vivo"}, "[4]": {"assay": "Protein binding in plasma (unknown origin)", "type": "ADME, cell-free", "details": "read-out: PPB (converted)"}, "[5]": {"assay": "AUC (0 to t) in Sprague-Dawley rat at 20 mg/kg, po by LC-MS/MS method", "type": "ADME, organism-based", "details": "in vivo"}, "[6]": {"assay": "Tmax in CD-1 mouse at 20 mg/kg, po by LC-MS/MS method", "type": "ADME, organism-based", "details": "in vivo"}, "[7]": {"assay": "Half life in Sprague-Dawley rat at 20 mg/kg, po by LC-MS/MS method", "type": "ADME, organism-based", "details": "in vivo"}, "[8]": {"assay": "Cmax in Sprague-Dawley rat at 20 mg/kg, po by LC-MS/MS method", "type": "ADME, organism-based", "design": "dose 20 mg/kg, route oral", "details": "in vivo"}, "Mus musculus [9]": {"system": "Mus musculus", "assay": "Toxicity in nude mouse xenografted with human NCI-H1581 cells assessed as emaciation at 20 mg/kg, po qd administered for 14 days", "type": "organism-based", "details": "in vivo, 336 h"}, "[10]": {"assay": "Tmax in Sprague-Dawley rat at 20 mg/kg, po by LC-MS/MS method", "type": "ADME, organism-based", "details": "in vivo"}, "[11]": {"assay": "MRT in CD-1 mouse at 20 mg/kg, po by LC-MS/MS method", "type": "ADME, organism-based", "details": "in vivo"}, "[12]": {"assay": "Tmax in Sprague-Dawley rat at 10 mg/kg, iv by LC-MS/MS method", "type": "ADME, organism-based", "details": "in vivo"}, "[13]": {"assay": "MRT in Sprague-Dawley rat at 10 mg/kg, iv by LC-MS/MS method", "type": "ADME, organism-based", "details": "in vivo"}, "[14]": {"assay": "Cmax in CD-1 mouse at 20 mg/kg, po by LC-MS/MS method", "type": "ADME, organism-based", "design": "dose 20 mg/kg, route oral", "details": "in vivo"}, "[15]": {"assay": "AUC (0 to t) in CD-1 mouse at 20 mg/kg, po by LC-MS/MS method", "type": "ADME, organism-based", "details": "in vivo"}, "NCI-H1581": {"system": "NCI-H1581", "assay": "Antitumor activity against human NCI-H1581 cells xenografted in nude mouse assessed as tumor growth inhibition at 20 mg/kg, po qd administered for 14 days measured twice per week during compound dosing", "type": "functional", "details": "336 h, read-out: TGI"}, "[16]": {"assay": "AUC (0 to t) in Sprague-Dawley rat at 10 mg/kg, iv by LC-MS/MS method", "type": "ADME, organism-based", "details": "in vivo"}, "[17]": {"assay": "MRT in CD-1 mouse at 5 mg/kg, iv by LC-MS/MS method", "type": "ADME, organism-based", "details": "in vivo"}, "Mus musculus [18]": {"system": "Mus musculus", "assay": "Unbound Cmax in CD-1 mouse at 20 mg/kg, po by LC-MS/MS method", "type": "ADME, organism-based", "details": "in vivo"}, "[19]": {"assay": "Tmax in CD-1 mouse at 5 mg/kg, iv by LC-MS/MS method", "type": "ADME, organism-based", "details": "in vivo"}, "[20]": {"assay": "Inhibition of FGFR3 mutant in human UM-UC-14 cells assessed as inhibition of cell proliferation after 72 hrs by cell counting kit-8 assay", "type": "cell-based", "details": "UMUC14, 72 h"}, "[21]": {"assay": "Half life in CD-1 mouse at 20 mg/kg, po by LC-MS/MS method", "type": "ADME, organism-based", "details": "in vivo"}, "[22]": {"assay": "Half life in CD-1 mouse at 5 mg/kg, iv by LC-MS/MS method", "type": "ADME, organism-based", "details": "in vivo"}}}
{"smiles": "Cc1n[nH]c2ccc(-c3cc(N[C@@H](CO)c4ccccc4)cnc3-c3cc(F)ccc3O)cc12", "values": [{"measurement": "IC50", "setting": "[1]", "value": 0.8, "unit": "nM"}, {"measurement": "clearance", "setting": "[2]", "value": 12.1, "unit": "mL/min/kg"}, {"measurement": "Cmax", "setting": "[3]", "value": 106, "unit": "ng/mL"}, {"measurement": "fraction unbound", "setting": "[4]", "value": 0.0044}, {"measurement": "AUC(0-t)", "setting": "[5]", "value": 16600, "unit": "ng·h/mL"}, {"measurement": "Tmax", "setting": "[6]", "value": 0.42, "unit": "h"}, {"measurement": "half-life", "setting": "[7]", "value": 8, "unit": "h"}, {"measurement": "Cmax", "setting": "[8]", "value": 2080, "unit": "ng/mL"}, {"measurement": "Activity", "setting": "Mus musculus [9]", "value": "Toxic"}, {"measurement": "Tmax", "setting": "[10]", "value": 1, "unit": "h"}, {"measurement": "MRT", "setting": "[11]", "value": 3.59, "unit": "h"}, {"measurement": "Tmax", "setting": "[12]", "value": 0.25, "unit": "h"}, {"measurement": "MRT", "setting": "[13]", "value": 3.41, "unit": "h"}, {"measurement": "Cmax", "setting": "[14]", "value": 961, "unit": "ng/mL"}, {"measurement": "AUC(0-t)", "setting": "[15]", "value": 2400, "unit": "ng·h/mL"}, {"measurement": "inhibition in vivo at 20 mg/kg", "setting": "NCI-H1581", "value": 66.1, "unit": "%"}, {"measurement": "AUC(0-t)", "setting": "[16]", "value": 13700, "unit": "ng·h/mL"}, {"measurement": "MRT", "setting": "[17]", "value": 3.74, "unit": "h"}, {"measurement": "fCmax", "setting": "Mus musculus [18]", "value": 10.2, "unit": "nM"}, {"measurement": "Tmax", "setting": "[19]", "value": 1.5, "unit": "h"}, {"measurement": "IC50", "setting": "[20]", "value": 128, "unit": "nM"}, {"measurement": "half-life", "setting": "[21]", "value": 2.72, "unit": "h"}, {"measurement": "half-life", "setting": "[22]", "value": 2.5, "unit": "h"}]}
